Test results as given in paper PMC6781309, “Assessing Drug Interaction and Pharmacokinetics of Loxoprofen in Mice Treated with CYP3A Modulators” (Pharmaceutics, 2019).
Several values for one entry are separate records, joined by “and”; a condition that tells them apart may be missing. Identical values can stand only once. Like-named read-outs stand apart in the source and are kept apart here.

Key:
[1] = Plasma pharmacokinetics of LOX, cis-LOX and trans-LOX after oral LOX in mice pretreated with DEX, KTC or vehicle; assay type: in vivo, Male ICR mice; conditions: for AUC(0-inf) / AUC(0-t) / Cmax / half-life / Tmax: male, ICR, mouse, plasma, po, 20 mg/kg, mouse plasma, LOX 20 mg/kg oral, mean ± SE, n = 3; for Cmax: read-out: Cmax; for half-life: read-out: T1/2 (elimination half-life); for Tmax: read-out: Tmax (converted)
Description: The acclimatized animals were divided into eight groups, with each group containing 3 mice: groups I and II, vehicle (corn oil); groups III and IV, DEX-treated; groups V and VI, vehicle (10% Ethanol); and groups VII and VIII, KTC-treated group. […] Then, animals were fasted for 12 hours with free access to water before starting the experiment. […]
After the oral administration of LOX, blood from groups I, III, V, and VII was collected from the tail at 0, 5, 10, 15, 30, 60, 120, and 240 min post-administration and placed into sodium heparin-containing tubes. After the last blood collection, the mice were sacrificed by cervical dislocation. Plasma was then prepared by centrifuging the blood at 4000× g for 15 min at 4 °C and stored at −80 °C until analysis. For analysis, each sample was prepared by mixing plasma (10 µL) and 90 µL of ACN containing 0.1% formic acid and 5 µM of tolbutamide as an internal standard (IS). […] Finally, 10 µL of sample supernatant was injected into the LC-MS/MS system. The PK parameters (the maximum plasma concentration [Cmax], time to reach the maximum plasma concentration [Tmax], elimination half-life [T1/2], and area under the plasma concentrations [AUC]) were analyzed by WinNonlin software (Version 2.1, Scientific Consulting, Louisville, KY, USA).
A Shimadzu Prominence UFLC system (Kyoto, Japan) connected to a TSQ vantage triple quadrupole mass spectrometer with a HESI-II spray source incorporated with a DGU-20A5 degasser, an LC-20AD pump, a SIL-20A autosampler, and a CTO-20A column oven was used for the analyses. A shim-pack GIS C18 column (150 × 3.0 mm, […]) was used to separate analytes in the samples. Mobile phases A and B were composed of water with formic acid and ACN with 0.1% formic acid, respectively, and the flow rate was 0.50 mL/min at 40 °C. The gradient conditions were as follows: 20% of B between 0 and 0.25 min, 20–80% of B between 0.25 and 9.75 min, 80–20% of B between 9.75 and 10 min, and 20% of B between 10 and 13 min. The MS was operated under the following conditions: electrospray ionization in negative mode at 3.0 kV, capillary temperature at 350 °C, vaporizer temperature at 300 °C, sheath gas pressure at 35 Arb, and auxiliary gas pressure at 10 Arb. Finally, Xcalibur software (Thermo Fisher Scientific Inc., Waltham, MA, USA) was used for data analysis.

[2] = Relative concentration of LOX and its metabolites in hepatic portal vein plasma 10 min post-LOX (HRMS); assay type: in vivo, Male ICR mice; conditions: hepatic portal vein plasma 10 min after LOX 20 mg/kg oral, n = 3; for Relative concentration in plasma (DEX average % of area, VH corn oil = 100): DEX 40 mg/kg i.p. 3 days; for Relative concentration in plasma (KTC average % of area, VH 10% ethanol = 100): KTC 60 mg/kg i.p. single dose
Description: The acclimatized animals were divided into eight groups, with each group containing 3 mice: groups I and II, vehicle (corn oil); groups III and IV, DEX-treated; groups V and VI, vehicle (10% Ethanol); and groups VII and VIII, KTC-treated group. […] Then, animals were fasted for 12 hours with free access to water before starting the experiment. After fasting, LOX (20 mg/kg) was administered orally to […].
Similarly, blood from groups II, IV, VI, and VIII was collected from the hepatic portal vein 10 min post-LOX administration to identify metabolites of LOX and to analyze drug–drug interactions. Plasma from these samples was prepared as explained above. Then, 300 µL of ACN having 0.1% formic acid and 5 µM of the IS were mixed with 100 µL of each plasma sample. […] Supernatants were transferred into tubes and dried using a Labconco Speed Vac (Labconco Corporation, Kansas City, MO, USA). […] Each supernatant was transferred into an LCMS vial, and 5 µL were injected into a high-resolution mass spectrometer (HRMS).
HRMS coupled with ultrahigh performance liquid chromatography (UHPLC) was used to detect hydroxy-LOX and other metabolites of LOX. The UHPLC system, Dionex Ultimate 3000 (Dionex Softron GmbH, Germering, Germany) consisted of an HPG-3200SD Standard binary pump, a WPS 3000 TRS analytical autosampler, and a TCC-3000 SD column compartment. In this experiment, the HRMS was a Q Exactive Focus quadrupole-Orbitrap MS (Thermo Fisher Scientific, Bremen, Germany) equipped with a heated electrospray ionization (HESI-II) ion probe.
LOX was detected as a deprotonated ion [M-H]^− at m/z 245.1175 in negative ion mode. Therefore, negative ion mode was used with the following optimized conditions for LOX: spray voltage of 2.5 kV, capillary temperature of 320 °C, auxiliary gas at 12 aux unit, aux gas heater temperature of 200 °C, sheath gas at 35 aux units, and S-lens RF level of 50. LOX and its metabolites were separated using a 150 mm × 2.1 mm, 2.6-μm reverse-phase liquid chromatography column, Kinetex® C18 column (Phenomenex, CA, USA) at 40 °C. Furthermore, MS-grade solvents were used as the mobile phase in gradient elution mode: 0.1% aqueous formic acid as Solvent A and 0.1% formic acid in ACN as Solvent B. The flow was set to 0.22 mL/min with a gradient condition of Solvent B as 10% between 0 and 0.5 min, 10–50% between 0.5 and 21.5 min, 50–95% between 21.5 and 22.5 min, 95% between 22.5 and 25.5 min, 95–10% between 25.5 and 25.6 min, and 10% between 25.6 and 30 min.

CYP3A = system: CYP3A; design: method as in PMID 17965516; conditions: human liver microsomes; cited from earlier work
[3] = pretreated DEX 40 mg/kg i.p. 3 days
[4] = pretreated DEX 40 mg/kg i.p. 3 days, read-out: AUC(0–60) (converted)
[5] = pretreated KTC 60 mg/kg i.p. single dose
[6] = pretreated VH (10% ethanol) i.p. single dose
[7] = pretreated VH (10% ethanol) i.p. single dose, read-out: AUC(0–60) (converted)
[8] = pretreated VH (corn oil) i.p. 3 days
[9] = pretreated VH (corn oil) i.p. 3 days, read-out: AUC(0–60) (converted)

Structure (SMILES)	AUC(0-inf) [1, 3] [ng·h/mL]	AUC(0-t) [1, 4] [ng·h/mL]	Cmax [1, 3] [ng/mL]	half-life [1, 3] [min]	Tmax [1, 3] [min]	AUC(0-inf) [1, 5] [ng·h/mL]	AUC(0-t) [1, 5] [ng·h/mL]	Cmax [1, 5] [ng/mL]	half-life [1, 5] [min]	Tmax [1, 5] [min]	AUC(0-inf) [1, 6] [ng·h/mL]	AUC(0-t) [1, 7] [ng·h/mL]	Cmax [1, 6] [ng/mL]	half-life [1, 6] [min]	Tmax [1, 6] [min]	AUC(0-inf) [1, 8] [ng·h/mL]	AUC(0-t) [1, 9] [ng·h/mL]	Cmax [1, 8] [ng/mL]	half-life [1, 8] [min]	Tmax [1, 8] [min]	also measured
CC(C(=O)O)c1ccc(CC2CCCC2=O)cc1 (centres unmarked) [LOX, 2-(4-((2-Oxocyclopentyl)methyl)phenyl)propanoic acid, reference compound]	937	892	2500 ± 200	12 ± 0.7	5	1150	1110	3500 ± 500	12.2 ± 0.9	5	985	912	2700 ± 300	14.6 ± 1.1	5	1700	1600	4800 ± 900	14.9 ± 0.6	5	Detection in plasma at later time points ([1]; blood collected for up to 240 min after LOX 20 mg/kg oral): not detected after 60 min; Relative concentration in plasma (DEX average % of area, VH corn oil = 100) [2]: 74.1% and 74.1 ± 6.3%; Relative concentration in plasma (KTC average % of area, VH 10% ethanol = 100) [2]: 178.2% and 178.2 ± 8.3%; Effect on the metabolism of tacrolimus (CYP3A): slightly inhibited
C[C@H](C(=O)O)c1ccc(C[C@H]2CCC[C@@H]2O)cc1 [trans-LOX, (2S)-2-[4-[[(1R,2S)-2-hydroxycyclopentyl]methyl]phenyl]propanoic acid]	1430	1130	2100 ± 200	26.4 ± 1.6	10.4	1580	1340	3100 ± 300	19.8 ± 0.7	11.7	1520	1170	2100 ± 200	26 ± 0.5	11.6	2580	2290	4400 ± 500	18.2 ± 0.6	9.1	Relative concentration in plasma (DEX average % of area, VH corn oil = 100) ([2]; listed as M1): 80.07%; Relative concentration in plasma (KTC average % of area, VH 10% ethanol = 100) [2]: 158.9 ± 11.9%; Relative concentration in plasma (KTC average % of area, VH 10% ethanol = 100) ([2]; listed as M1): 158.93%
